Assays:
Type in all cases: cell-based
[1] = system: inflammatory cytokine IL-8; test: in vitro model of induced cell senescence: expression of IL-8; details: UVA + agent
From the text: (§1) An in vitro model of induced early cell aging (cell senescence) was developed and used to evaluate whether certain cosmetic ingredients can protect or delay molecular mechanisms that lead to aging of skin cells or to loss of functional competence (loss of cellular vitality).

[2] = system: cell senescence-associated lysosomal b-galactosidase; test: in vitro model of induced early cell aging (cell senescence), UVA/UVB: senescence-associated lysosomal b-galactosidase (flow cytometry and cytochemical marking); details: in the presence of agent
From the text: as §1

transcription factor p16 = test: in vitro model of induced cell senescence: expression of p16; details: protection of the cells with agent
From the text: as §1

transcription factor p21 = test: in vitro model of induced cell senescence: expression of p21; details: protection of the cells with agent
From the text: as §1

O=C(O)/C=C/c1ccc(O)c(O)c1 [caffeic acid]
expression of IL-8 [1]: reduced | appearance of b-galactosidase marking induced by UV [2]: reduced | induced expression of p16 (transcription factor p16): reduces

Cc1c(C)c2c(c(C)c1O)CCC(C)(C(=O)O)O2 (stereo not shown) [trolox]
expression of IL-8 [1]: reduced | appearance of b-galactosidase marking induced by UV [2]: reduced | induced expression of p16 (transcription factor p16): reduces | induced expression of p21 (transcription factor p21): reduces

Source: US20180147134A1, “ANTI-CELL SENESCENCE COSMETIC COMPOSITION, USE OF CASEARIA SYLVESTRIS AND/OR HIMENAEA COURBARIL, METHOD OF PREVENTING CELL SENESCENCE AND A METHOD FOR MODULATING THE EXPRESSION OF B-GALACTOSIDASE, P16, P21 AND/OR IL-8” (Natura Cosméticos S.A., priority 2016, published 2018)
